In US20250194600A1, “MESOIONIC ARYLPYRIDAZINIUM DERIVATIVE OR SALT THEREOF AND INSECTICIDAL AGENT CONTAINING THE COMPOUND AND METHOD FOR USING SAME” (NIHON NOHYAKU CO., LTD., priority 2022, published 2025):

How the values were obtained:
[1] = tested on: Western flower thrips (Frankliniella occidentalis); experiment: Insecticidal test on western flower thrips, larvae on kidney bean leaf pieces; type: in vivo; details: 96 h, hatched larvae on kidney bean leaf pieces, counted 4 days after treatment, read-out: insecticidal efficacy (corrected mortality rate) against western flower thrips
Source text: (§1) • A: the mortality rate is 100%. • B: the mortality rate is 90 to 99%. • C: the mortality rate is 80 to 89%. • D: the mortality rate is 50 to 79%. • E: the mortality rate is 0 to 49.
Insecticidal Test on Western flower thrips (Frankliniella occidentalis)
Female adults of western flower thrips were inoculated onto kidney bean leaf pieces, and allowed to lay eggs thereon for one day, then the female adults were removed. After 3 days, the hatched larvae on the leaf pieces were counted, and then the agrochemical dispersions diluted to 50 ppm or 500 ppm, each of which contained the compound described in Tables 1 to 5 as an active ingredient were applied. The number of larvae of the species surviving at 4 days after the treatment was counted, and the corrected mortality rate was calculated according to the formula shown below, and the insecticidal efficacy was evaluated according to the criteria of Test Example 1. This test was conducted in duplicate.

[2] = tested on: Small Brown Planthopper (Laodelphax striatellus); experiment: Insecticidal test on small brown planthopper, dip treatment of rice plant seedlings; type: in vivo; details: 192 h, rice seedlings dipped 30 seconds, 3rd-instar larvae, counted 8 days after inoculation, read-out: insecticidal efficacy (corrected mortality rate) against small brown planthopper
Source text: as §1
Insecticidal Test on Small Brown Planthopper (Laodelphax striatellus)
The compounds represented by the general formula (1) of the present invention or salts thereof were separately dispersed in water and diluted to 50 ppm or 500 ppm. Rice plant seedlings (variety: Nihonbare) were dipped in the agrochemical dispersions for 30 seconds. After air-dried, each seedling was put into a separate glass test tube and inoculated with ten 3rd-instar larvae of small brown planthopper, and then the glass test tubes were capped with cotton plugs. At 8 days after the inoculation, the numbers of surviving larvae and dead larvae were counted, the corrected mortality rate was calculated according to the formula shown below, and the insecticidal efficacy was evaluated according to the criteria of Test Example 1.

O=C(Nc1ccc(F)cc1)c1c([S-])c[n+](-c2ccc(C(F)(F)F)nc2)nc1O [2-1, 4-((4-fluorophenyl)carbamoyl)-3-hydroxy-1-(6-(trifluoromethyl)pyridin-3-yl)pyridazin-1-ium-5-thiolate]
100%: mortality at 50 ppm ([1]; 50 ppm) | mortality at 500 ppm ([1]; 500 ppm) | mortality at 500 ppm [2]
